Laboratory results taken from PMC4438668, “Quantitative High-Throughput Identification of Drugs as Modulators of Human Constitutive Androstane Receptor” (Scientific Reports, 2015).
“Also recorded” adds a separate entry of the source.

How the values were obtained:
hPXR = biological target: T1, hPXR (Homo sapiens, UniProt O75469); test: Transient hPXR luciferase assay in HepG2 cells (CYP2B6-2.2 kb reporter); assay type: cell-based; conditions: HepG2, 24 h, in the presence or absence of rifampicin (10 μM)
T1 construct: expressed in transfected cells; host or cells: HepG2 (transient transfection)
T1 sequence (O75469 1-434): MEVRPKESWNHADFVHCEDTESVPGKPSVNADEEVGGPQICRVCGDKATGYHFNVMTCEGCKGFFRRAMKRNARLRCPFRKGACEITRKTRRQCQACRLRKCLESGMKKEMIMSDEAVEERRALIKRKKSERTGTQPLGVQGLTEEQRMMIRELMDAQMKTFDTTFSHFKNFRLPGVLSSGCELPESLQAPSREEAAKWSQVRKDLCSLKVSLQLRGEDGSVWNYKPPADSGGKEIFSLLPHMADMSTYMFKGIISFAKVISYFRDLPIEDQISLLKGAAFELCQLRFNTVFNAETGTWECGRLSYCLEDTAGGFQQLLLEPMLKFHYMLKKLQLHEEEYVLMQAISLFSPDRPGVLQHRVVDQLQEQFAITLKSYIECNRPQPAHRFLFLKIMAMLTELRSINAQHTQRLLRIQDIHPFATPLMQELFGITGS
Procedure: HepG2 cells cultured in a 24-well plate were co-transfected with the CYP2B6-2.2 kb reporter and hPXR expression vectors using a Lipofectamine® 2000 Transfection Kit (Life Technologies) following the manufacturer’s instruction. […] Cell lysates were assayed for firefly luciferase activities normalized against the activities of co-transfected Renilla luciferase using a Dual-Luciferase Kit (Promega). Data were represented as mean±SD of three individual transfections.

CYP2B6 = CYP2B6 mRNA expression in HPH (real-time PCR); conditions: HPH; for Effect on CYP2B6 mRNA expression: 24 h, vs vehicle control (0.1% DMSO)
HepG2-CYP2B6-hCAR cells = test: Cell viability assay (CellTiter-Glo ATP quantitation); assay type: cell-based, human; parameters: key to Cytotoxicity (activity call): Inactive: considered inactive if efficacy is less than 30%; conditions: 24 h
Procedure: The potential cytotoxicity of the NPC compounds in HepG2-CYP2B6-hCAR cells was measured using a luciferase-coupled ATP quantitation assay (CellTiter-Glo viability assay, Promega). The change of intracellular ATP content indicates the number of metabolically competent cells. The cells were seeded at 2,500 cells/5 μl in 1536-well plates and were exposed to each test compound at concentrations and treatment duration as previously mentioned. The assay plates were incubated for 24 h at 37 °C, followed by the addition of 4 μl/well of CellTiter-Glo reagent. After 30 min incubation at RT, the luminescence intensity of the plates was measured using a ViewLux plate reader.

human CAR (hCAR) [1] = biological target: T2, human CAR (hCAR) (Homo sapiens, UniProt Q14994); test: hCAR luciferase reporter qHTS, antagonist mode (HepG2-CYP2B6-hCAR cells, CITCO co-treatment);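 note: stable HepG2 line carrying hCAR plus a CYP2B6 promoter (PBREM/XREM) luciferase reporter, 1536-well format, 24 h compound exposure at 37 °C, then luminescence read with ONE-Glo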
T2 sequence (Q14994 1-348 isoform Q14994-2): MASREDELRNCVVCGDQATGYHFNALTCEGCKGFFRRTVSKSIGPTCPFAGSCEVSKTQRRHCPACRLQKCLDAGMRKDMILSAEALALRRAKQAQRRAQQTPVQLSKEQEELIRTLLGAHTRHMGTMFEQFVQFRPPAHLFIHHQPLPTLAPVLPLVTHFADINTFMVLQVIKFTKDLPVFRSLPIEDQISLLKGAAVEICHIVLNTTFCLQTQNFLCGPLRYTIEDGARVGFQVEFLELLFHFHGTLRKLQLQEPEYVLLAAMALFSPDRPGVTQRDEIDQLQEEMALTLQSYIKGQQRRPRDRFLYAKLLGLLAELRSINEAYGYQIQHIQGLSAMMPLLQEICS

CYP3A4 = CYP3A4 mRNA expression in HPH (real-time PCR); assay type: cell-based, human; conditions: HPH, 24 h, vs vehicle control (0.1% DMSO)
human CAR (hCAR) [2] = biological target: T2, human CAR (hCAR); test: hCAR luciferase reporter qHTS, agonist mode (HepG2-CYP2B6-hCAR cells, PK11195 co-treatment); conditions: for EC50 / Follow-up Confirmation Efficacy / Primary Screen Efficacy: agonist mode; for Follow-up Confirmation Efficacy: relative to CITCO (100%); for Primary Screen Efficacy: relative to CITCO Emax (100%)
EYFP-hCAR = biological target: T3, EYFP-hCAR (Homo sapiens, UniProt Q14994); test: Nuclear translocation of Ad/EYFP-hCAR in human primary hepatocytes; assay type: cell-based; conditions: HPH
T3 construct: expressed in transfected cells; host or cells: human primary hepatocytes infected with Ad/EYFP-hCAR
T3 sequence (Q14994 1-348 isoform Q14994-2): T2 sequence (Q14994 1-348 isoform Q14994-2)
Procedure: A recombinant adenovirus expressing enhanced yellow fluorescent protein-tagged hCAR (Ad/EYFP-hCAR) was generated as described previously. Hepatocytes cultured in 96-well collagen-coated plates in serum free Williams’ E medium were infected with Ad/EFYP-hCAR (1 μl/well) for 12 h before treatment with the vehicle control, DMSO (0.1%), PB (1 mM), and selected compounds for another 8 h. Subcellular localization of hCAR was visualized using a Nikon (Tokyo, Japan) C1-LU3 instrument based on an inverted Nikon Eclipse TE2000 microscope.

[3] = Follow-up Confirmation Potency (IC50), antagonist mode, follow-up cherry-pick, 11-point titration
[4] = Primary Screen Potency (IC50), antagonist mode, primary qHTS, 0.1 μM CITCO, 24 h
[5] = antagonist mode, follow-up cherry-pick, relative to PK11195 (100%)
[6] = Follow-up Confirmation Potency (EC50), follow-up cherry-pick, 11-point titration
[7] = Primary Screen Potency (EC50), primary qHTS, 2.5 μM PK11195, 24 h

Structure (SMILES)	Effect on CYP2B6 mRNA expression (CYP2B6)	Cytotoxicity (activity call) (HepG2-CYP2B6-hCAR cells)	Effect on CYP3A4 mRNA expression (CYP3A4)	EC50 (human CAR (hCAR) [2]; [6])	EC50 (human CAR (hCAR) [2]; [7])	Follow-up Confirmation Efficacy (human CAR (hCAR) [2]; follow-up cherry-pick)	Primary Screen Efficacy (human CAR (hCAR) [2]; primary qHTS)	further results
O=c1[nH]c(=O)n([C@H]2C[C@H](O)[C@@H](CO)O2)cc1C(F)(F)F [Trifluridine]	moderately induced	Inactive						Effect on basal and RIF-induced PXR activity (hPXR): no effects on either basal or RIF-induced hPXR activation; IC50 (human CAR (hCAR) [1]; [3]): 4.5 µM; IC50 (human CAR (hCAR) [1]; [4]): 6.7 µM; Follow-up Confirmation Efficacy (human CAR (hCAR) [1]; [5]): -73%
COc1cc(N)c(Cl)cc1C(=O)NC1CCN(Cc2ccccc2)CC1 [Clebopride]	significantly induced; also recorded: potent induction exceeding that of CITCO		markedly enhanced	9.4 µM	7.6 µM	80%	52%	
CC[C@@]1(O)C(=O)OCc2c1cc1n(c2=O)Cc2cc3c(CN(C)C)c(O)ccc3nc2-1 [Topotecan]		Inactive	negligible effect					IC50 (human CAR (hCAR) [1]; [3]): 0.36 µM; IC50 (human CAR (hCAR) [1]; [4]): 0.06 µM; Follow-up Confirmation Efficacy (human CAR (hCAR) [1]; [5]): -109%; Primary Screen Efficacy (human CAR (hCAR) [1]; antagonist mode, primary qHTS, relative to PK11195 (100%)): -94%
Clc1ccc(-c2nc3sccn3c2C=NOCc2ccc(Cl)c(Cl)c2)cc1 [CITCO, 6-(4-chlorophenyl) imidazo[2,1-b][1,3]-thiazole-5-carbaldehyde-O-(3,4-dichlorobenzyl)oxime]								Effect on hCAR activity (agonist mode optimization, Fig. 1A) (human CAR (hCAR) [2]; PK11195 at 2.5 μM and 5.0 μM, CITCO co-treated with PK11195): restored the hCAR activity in a concentration-dependent manner; Effect on hCAR activity (antagonist mode optimization, Fig. 4A) (human CAR (hCAR) [1]; PK11195 at varying concentrations, CITCO co-treatment at 75 nM, 100 nM, or 200 nM): moderate but concentration-dependent increase of the basal activity of hCAR
CCCCNc1c(C(=O)OCC)c(C)nc2c1cnn2CC [Tracazolate]				24 µM	17 µM	101%	27%	
COC(=O)Nc1nc2ccc(C(=O)c3cccs3)cc2[nH]1 [nocodazole]								Identified as hCAR agonist in the qHTS (human CAR (hCAR) [2]; primary qHTS of 2816 NPC compounds): hCAR agonist from the current study
CN1CCc2cccc3c2[C@H]1Cc1ccc(O)c(O)c1-3 [Apomorphine]				13.3 µM	19 µM	38%	21%	Induction of hCAR target genes (CYP2B6; target genes CYP2B6 and CYP3A4): negligible induction; also recorded: nor induced the expression of its target genes; hCAR nuclear translocation (in words) (EYFP-hCAR): didn’t translocate hCAR; also recorded: neither translocated hCAR
Clc1ccc(Nc2nnc(Cc3ccncc3)c3ccccc23)cc1 [Vatalanib]	significantly induced		markedly enhanced	12.6 µM	10.7 µM	97%	68%	
CCC1(c2ccccc2)C(=O)NC(=O)NC1=O [PB, phenobarbital]								Nuclear localization of EYFP-hCAR (EYFP-hCAR; 1 mM): 99%
COc1cc(Nc2c(C#N)cnc3cc(OCCCN4CCN(C)CC4)c(OC)cc23)c(Cl)cc1Cl [Bosutinib]		Inactive						
